According to patent US9540377B2, “2,6,7,8 substituted purines as HDM2 inhibitors” (Merck Sharp & Dohme Corp., priority 2013, dated 2017):
pIC50: −log10 of the molar value.

biological target: HDM2 (Homo sapiens (Human), UniProt Q00987); assay: FRET assay (FRET IC50 of Tables 1-11); format: binding; conditions: not given
Sequence (Q00987 17-125): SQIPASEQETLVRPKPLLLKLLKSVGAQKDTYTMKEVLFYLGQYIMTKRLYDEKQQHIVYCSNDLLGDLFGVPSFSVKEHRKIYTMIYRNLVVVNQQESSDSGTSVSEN

| Molecule | pIC50 |
| --- | --- |
| COc1ccc(C)cc1-c1nc2nc(C(=O)O)nc(N[C@H](C)C3CC3(F)F)c2n1Cc1ccc(C(F)(F)F)cc1 (stereo partly drawn) [Example 7.19, 6-{[(1R)-1-(2,2-difluorocyclopropyl)ethyl]amino}-8-(2-methoxy-5-methylphenyl)-7-[4-(trifluoromethyl)benzyl]-7H-purine-2-carboxylic acid] | 7.14 |
| 6-{[(1R)-1-cyclopropylethyl]ammo}-8-phenyl-7-[4-(trifluoromethyl)benzyl]-7H-purine-2-carboxylic acid [Example 1.96] | 6.43 |

same assay, conditions: Table 9

| Molecule | pIC50 |
| --- | --- |
| C[C@@H](Nc1nc(C(=O)O)nc2nc(N3CCCCC3Cc3ccccc3)n(Cc3ccc(C(F)(F)F)cc3)c12)C1CCC1 (stereo partly drawn) [Example 9.3, 8-(2-benzylpiperidin-1-yl)-6-{[(1R)-1-cyclobutylethyl]amino}-7-[4-(trifluoromethyl)benzyl]-7H-purine-2-carboxylic acid] | 7.68 |

biological target: HDM2 (truncated, residues 17 to 125, containing p53 binding surface) (Homo sapiens (Human), UniProt Q00987); assay: HDM2 FRET assay (inhibition of binding of FITC labeled p53-site peptide to HDM2); conditions: Table 16
Sequence (Q00987 17-125): as above
Excerpt: IC50 DETERMINATIONS: Dose-response curves were plotted from the inhibition data, from 10 point serial dilutions of inhibitory compounds. Concentration of compound was plotted against em520/Cem495 ratio signal. To generate IC50 values, the dose-response curves were fitted to a standard sigmoidal curve and IC50 values were derived by nonlinear regression analysis.

| Molecule | pIC50 |
| --- | --- |
| C[C@H]1CC[C@H](Cn2c(N3CCO[C@H]4CCCC[C@H]43)nc3nc(-c4noc(=O)[nH]4)nc(-c4cncc(Cl)c4)c32)CC1 (racemic) [Example 16.131, 3-{6-(5-chloropyridin-3-yl)-7-[(trans-4-methylcyclohexyl)methyl]-8-[(cis)-octahydro-4H-1,4-benzoxazin-4-yl]-7H-purin-2-yl}-1,2,4-oxadiazol-5(4H)-one] | 7.46 |
| C[C@H]1CC[C@H](Cn2c(N3CCCC4COCCC43)nc3nc(-c4n[nH]c(=O)o4)nc(-c4cncc(Cl)c4)c32)CC1 (single isomer, unassigned) [Example 16.123, 5-{6-(5-chloropyridin-3-yl)-8-(hexahydro-2H-pyrano[4,3-b]pyridin-1(5H)-yl)-7-[(trans-4-methylcyclohexyl)methyl]-7H-purin-2-yl}-1,3,4-oxadiazol-2(3H)-one] | 7.23 |
| Cc1noc(C2CCCN2c2nc3nc(-c4noc(=O)[nH]4)nc(-c4cncc(Cl)c4)c3n2C[C@H]2CC[C@H](C)CC2)n1 (mixture of isomers) [Example 16.143, 3-{6-(5-chloropyridin-3-yl)-7-[(trans-4-methylcyclohexyl)methyl]-8-[2-(3-methyl-1,2,4-oxadiazol-5-yl)pyrrolidin-1-yl]-7H-purin-2-yl}-1,2,4-oxadiazol-5(4H)-one] | 8.83 |
| Cc1ncc(Cl)cc1-c1nc(-c2noc(=O)[nH]2)nc2nc(N3CCO[C@@H]4CCC[C@H]43)n(C[C@H]3CC[C@H](C)CC3)c12 (racemic) [Example 16.164, 3-{6-(5-chloro-2-methylpyridin-3-yl)-8-[(trans)-hexahydrocyclopenta [b][1,4]oxazin-4(4aH)-yl]-7-[(trans-4-methylcyclohexyl)methyl]-7H-purin-2-yl}-1,2,4-oxadiazol-5(4H)-one] | 8.68 |
| COC(C)(C)C1CCCN1c1nc2nc(-c3noc(=O)[nH]3)nc(-c3cncc(Cl)c3)c2n1C[C@H]1CC[C@H](C)CC1 (single isomer, unassigned) [Example 16.72, 3-{6-(5-chloropyridin-3-yl)-8-[2-(1-methoxy-1-methylethyl)pyrrolidin-1-yl]-7-[(trans-4-methylcyclohexyl)methyl]-7H-purin-2-yl}-1,2,4-oxadiazol-5(4H)-one] | 9.01 |

same assay, conditions: Table 23

| Molecule | pIC50 |
| --- | --- |
| CC1COCCC1(F)c1nc2nc(-c3noc(=O)[nH]3)nc(-c3cncc(Cl)c3)c2n1C[C@H]1CC[C@H](C)CC1 (single isomer, unassigned) [Example 23.95, 3-{6-(5-chloropyridin-3-yl)-8-(4-fluoro-3-methyltetrahydro-2H-pyran-4-yl)-7-[(trans-4-methylcyclohexyl)methyl]-7H-purin-2-yl}-1,2,4-oxadiazol-5(4H)-one] | 8.36 |
| COC(C)(c1c(F)cccc1F)c1nc2nc(-c3noc(=O)[nH]3)nc(-c3cncc(Cl)c3)c2n1C[C@H]1CC[C@H](C)CC1 (single isomer, unassigned) [Example 23.93, 3-{6-(5-chloropyridin-3-yl)-8-[1-(2,6-difluorophenyl)-1-methoxyethyl]-7-[(trans-4-methylcyclohexyl)methyl]-7H-purin-2-yl}-1,2,4-oxadiazol-5(4H)-one] | 9.34 |
| CC(c1ccccc1F)c1nc2nc(-c3noc(=O)[nH]3)nc(-c3cncc(Cl)c3)c2n1C[C@H]1CC[C@H](C)CC1 (mixture of isomers) [Example 23.113, 3-{6-(5-chloropyridin-3-yl)-8-[1-(2-fluorophenyl)ethyl]-7-[(trans-4-methylcyclohexyl)methyl]-7H-purin-2-yl}-1,2,4-oxadiazol-5(4H)-one] | 8.86 |
| CC1CCCCC1(F)c1nc2nc(-c3n[nH]c(=O)o3)nc(-c3cncc(Cl)c3)c2n1C[C@H]1CC[C@H](C)CC1 (single isomer, unassigned) [Example 23.83, 5-{6-(5-chloropyridin-3-yl)-8-(1-fluoro-2-methylcyclohexyl)-7-[(trans-4-methylcyclohexyl)methyl]-7H-purin-2-yl}-1,3,4-oxadiazol-2(3H)-one] | 8.20 |
| COCC(C)(F)c1nc2nc(-c3n[nH]c(=O)o3)nc(-c3cncc(Cl)c3)c2n1C[C@H]1CC[C@H](C)CC1 (mixture of isomers) [Example 23.106, 5-{6-(5-chloropyridin-3-yl)-8-(1-fluoro-2-methoxy-1-methylethyl)-7-[(trans-4-methylcyclohexyl)methyl]-7H-purin-2-yl}-1,3,4-oxadiazol-2(3H)-one] | 8.41 |
| COC(C)(c1c(F)cccc1F)c1nc2nc(-c3n[nH]c(=O)o3)nc(-c3cncc(Cl)c3)c2n1C[C@H]1CC[C@H](C)CC1 (single isomer, unassigned) [Example 23.88, 5-{6-(5-chloropyridin-3-yl)-8-[1-(2,6-difluorophenyl)-1-methoxyethyl]-7-[(trans-4-methylcyclohexyl)methyl]-7H-purin-2-yl}-1,3,4-oxadiazol-2(3H)-one] | 9.22 |
| CC(F)(c1ccccc1F)c1nc2nc(-c3noc(=O)[nH]3)nc(-c3cncc(Cl)c3)c2n1C[C@H]1CC[C@H](C)CC1 (single isomer, unassigned) [Example 23.34, 3-{6-(5-chloropyridin-3-yl)-8-[1-fluoro-1-(2-fluorophenyl)ethyl]-7-[(trans-4-methylcyclohexyl)methyl]-7H-purin-2-yl}-1,2,4-oxadiazol-5(4H)-one] | 8.03 |
| COc1ccccc1C(C)(OC)c1nc2nc(-c3n[nH]c(=O)o3)nc(-c3cncc(Cl)c3)c2n1C[C@H]1CC[C@H](C)CC1 (mixture of isomers) [Example 23.78, 5-{6-(5-chloropyridin-3-yl)-8-[1-methoxy-1-(2-methoxyphenyl)ethyl]-7-[(trans-4-methylcyclohexyl)methyl]-7H-purin-2-yl}-1,3,4-oxadiazol-2(3H)-one] | 8.09 |
| COc1ccccc1C(C)(OC)c1nc2nc(-c3noc(=O)[nH]3)nc(-c3cncc(Cl)c3)c2n1C[C@H]1CC[C@H](C)CC1 (mixture of isomers) [Example 23.79, 3-{6-(5-chloropyridin-3-yl)-8-[1-methoxy-1-(2-methoxyphenyl)ethyl]-7-[(trans-4-methylcyclohexyl)methyl]-7H-purin-2-yl}-1,2,4-oxadiazol-5(4H)-one] | 8.42 |
| CC1COCCC1(F)c1nc2nc(-c3noc(=O)[nH]3)nc(-c3cncc(Cl)c3)c2n1C[C@H]1CC[C@H](C)CC1 (single isomer, unassigned) [Example 23.94, 3-{6-(5-chloropyridin-3-yl)-8-(4-fluoro-3-methyltetrahydro-2H-pyran-4-yl)-7-[(trans-4-methylcyclohexyl)methyl]-7H-purin-2-yl}-1,2,4-oxadiazol-5(4H)-one] | 7.63 |
| COC(C)(c1cccc(Cl)c1F)c1nc2nc(-c3n[nH]c(=O)o3)nc(-c3cncc(Cl)c3)c2n1C[C@H]1CC[C@H](C)CC1 (single isomer, unassigned) [Example 23.73, 5-{8-[1-(3-chloro-2-fluorophenyl)-1-methoxyethyl]-6-(5-chloropyridin-3-yl)-7-[(trans-4-methylcyclohexyl)methyl]-7H-purin-2-yl}-1,3,4-oxadiazol-2(3H)-one] | 9.21 |
| C[C@H]1CC[C@H](Cn2c(C(O)C3CCCCC3)nc3nc(-c4noc(=O)[nH]4)nc(-c4cccc(Cl)c4)c32)CC1 (mixture of isomers) [Example 23.5, 3-{6-(3-chlorophenyl)-8-[cyclohexyl(hydroxy)methyl]-7-[(trans-4-methylcyclohexyl)methyl]-7H-purin-2-yl}-1,2,4-oxadiazol-5(4H)-one] | 8.14 |
| CC(F)(c1ncccc1F)c1nc2nc(-c3n[nH]c(=O)o3)nc(-c3cncc(Cl)c3)c2n1C[C@H]1CC[C@H](C)CC1 (single isomer, unassigned) [Example 23.84, 5-{6-(5-chloropyridin-3-yl)-8-[1-fluoro-1-(3-fluoropyridin-2-yl)ethyl]-7-[(trans-4-methylcyclohexyl)methyl]-7H-purin-2-yl}-1,3,4-oxadiazol-2(3H)-one] | 7.78 |
| COC(C)(c1ncoc1C)c1nc2nc(-c3noc(=O)[nH]3)nc(-c3cccc(Cl)c3)c2n1C[C@H]1CC[C@H](C)CC1 (mixture of isomers) [Example 23.57, 3-{6-(3-chlorophenyl)-8-[1-methoxy-1-(5-methyl-1,3-oxazol-4-yl)ethyl]-7-[(trans-4-methylcyclohexyl)methyl]-7H-purin-2-yl}-1,2,4-oxadiazol-5(4H)-one] | 8.68 |
